The conditions of data set [1]: OVX rats; oral administration; in the presence of an anti-resorptive agent (Gowen et al. 2000); cited from earlier work.
The conditions of data set [2]: intravenous bolus injection; cited from earlier work.
The conditions of data set [3]: postmenopausal women; placebo-controlled trial (Neer et al. 2001); cited from earlier work.

Results on 4 compounds are retold here after patent US7205322B2, “Thiazolidine compounds as calcium sensing receptor modulators” (Bristol-Myers Squibb Company, priority 2003, dated 2007).

Where a name gives a salt, the structure may show the parent alone.

Compound `COc1ccc(CC(C)(C)NC[C@H](O)[C@H]2CSCN2Cc2cccc(C#N)c2)cc1` (stereo in doubt) (as salt: hydrochloride) [Example 3, 3-(4-{1-Hydroxy-2-[2-(4-methoxy-phenyl)-1,1-dimethyl-ethylamino]-ethyl}-thiazolidin-3-ylmethyl)-benzonitrile] showed a melting point of 158 to 163 °C.

`CC(C)(Cc1ccc2ccccc2c1)NC[C@H](O)[C@H]1CSCN1Cc1ccc(SCc2ccco2)c([N+](=O)[O-])c1` (stereo in doubt) [Example 4, 2-(1,1-Dimethyl-2-naphthalen-2-yl-ethylamino)-1-{3-[4-(furan-2-ylmethylsulfanyl)-3-nitro-benzyl]-thiazolidin-4-yl}-ethanol] displayed a melting point of 80 to 85 °C.

Consider `CC(C)(Cc1ccc2ccccc2c1)NC[C@@H](O)COc1cccc(Cl)c1C#N` [NPS-2143], for which the “effect on bone mass” value in data set [1] was “increase in bone mass”. In addition, the “effect on serum PTH” value in data set [2] is “transient increase in serum PTH”.

As for “PTH peptide fragment (1–34): PTH peptide fragment (1–34), parathyroid hormone fragment; stimulator of bone formation (SVSEIQLMHNLGKHLNSMERVEWLRKKLQDVHNF; Parathyroid hormone; UniProt P01270 32-65, looked up, fragment)”, in data set [3], the “reduction of the risk of non-traumatic, non-spine fractures” value was 54% and the “reduction of the risk of spine fractures” value was 65%.
